Measurements published in patent US20240408093A1, “HETEROBIFUNCTIONAL COMPOUNDS AND THEIR USE IN TREATING DISEASE” (HALDA THERAPEUTICS OPCO, INC., priority 2022, published 2024).
Like-named read-outs stand apart in the source and are kept apart here.

Tests used:
[1] = target: T1, CCNK (Homo sapiens, UniProt O75909+Q16531+Q9NYV4); experiment: CCNK HiBiT degradation assay; format: cell-based; details: HEK293 LgBiT/CCNK HiBiT cells, 6 hours
T1 construct: expressed in transfected cells; host or cells: HEK293 LgBiT cells (Promega), lentiviral transduction, puromycin selection
T1 sequence (O75909 whole entry, species assumed): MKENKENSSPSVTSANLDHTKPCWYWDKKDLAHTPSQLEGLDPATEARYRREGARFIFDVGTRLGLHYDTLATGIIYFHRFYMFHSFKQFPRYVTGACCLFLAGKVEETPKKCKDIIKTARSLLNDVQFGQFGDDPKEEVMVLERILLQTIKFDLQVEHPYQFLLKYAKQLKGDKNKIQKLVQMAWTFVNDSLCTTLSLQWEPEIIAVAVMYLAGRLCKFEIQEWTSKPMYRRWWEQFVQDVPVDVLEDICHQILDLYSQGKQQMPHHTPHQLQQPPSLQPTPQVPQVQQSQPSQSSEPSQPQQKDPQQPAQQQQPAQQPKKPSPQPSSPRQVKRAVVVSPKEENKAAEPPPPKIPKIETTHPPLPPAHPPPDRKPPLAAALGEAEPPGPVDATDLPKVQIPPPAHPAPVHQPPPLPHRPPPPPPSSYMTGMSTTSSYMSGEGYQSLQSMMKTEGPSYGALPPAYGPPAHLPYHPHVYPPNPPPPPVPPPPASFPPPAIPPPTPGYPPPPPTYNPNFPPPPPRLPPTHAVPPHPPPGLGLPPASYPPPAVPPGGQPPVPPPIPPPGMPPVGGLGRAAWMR
T1 sequence (Q9NYV4 whole entry, species assumed): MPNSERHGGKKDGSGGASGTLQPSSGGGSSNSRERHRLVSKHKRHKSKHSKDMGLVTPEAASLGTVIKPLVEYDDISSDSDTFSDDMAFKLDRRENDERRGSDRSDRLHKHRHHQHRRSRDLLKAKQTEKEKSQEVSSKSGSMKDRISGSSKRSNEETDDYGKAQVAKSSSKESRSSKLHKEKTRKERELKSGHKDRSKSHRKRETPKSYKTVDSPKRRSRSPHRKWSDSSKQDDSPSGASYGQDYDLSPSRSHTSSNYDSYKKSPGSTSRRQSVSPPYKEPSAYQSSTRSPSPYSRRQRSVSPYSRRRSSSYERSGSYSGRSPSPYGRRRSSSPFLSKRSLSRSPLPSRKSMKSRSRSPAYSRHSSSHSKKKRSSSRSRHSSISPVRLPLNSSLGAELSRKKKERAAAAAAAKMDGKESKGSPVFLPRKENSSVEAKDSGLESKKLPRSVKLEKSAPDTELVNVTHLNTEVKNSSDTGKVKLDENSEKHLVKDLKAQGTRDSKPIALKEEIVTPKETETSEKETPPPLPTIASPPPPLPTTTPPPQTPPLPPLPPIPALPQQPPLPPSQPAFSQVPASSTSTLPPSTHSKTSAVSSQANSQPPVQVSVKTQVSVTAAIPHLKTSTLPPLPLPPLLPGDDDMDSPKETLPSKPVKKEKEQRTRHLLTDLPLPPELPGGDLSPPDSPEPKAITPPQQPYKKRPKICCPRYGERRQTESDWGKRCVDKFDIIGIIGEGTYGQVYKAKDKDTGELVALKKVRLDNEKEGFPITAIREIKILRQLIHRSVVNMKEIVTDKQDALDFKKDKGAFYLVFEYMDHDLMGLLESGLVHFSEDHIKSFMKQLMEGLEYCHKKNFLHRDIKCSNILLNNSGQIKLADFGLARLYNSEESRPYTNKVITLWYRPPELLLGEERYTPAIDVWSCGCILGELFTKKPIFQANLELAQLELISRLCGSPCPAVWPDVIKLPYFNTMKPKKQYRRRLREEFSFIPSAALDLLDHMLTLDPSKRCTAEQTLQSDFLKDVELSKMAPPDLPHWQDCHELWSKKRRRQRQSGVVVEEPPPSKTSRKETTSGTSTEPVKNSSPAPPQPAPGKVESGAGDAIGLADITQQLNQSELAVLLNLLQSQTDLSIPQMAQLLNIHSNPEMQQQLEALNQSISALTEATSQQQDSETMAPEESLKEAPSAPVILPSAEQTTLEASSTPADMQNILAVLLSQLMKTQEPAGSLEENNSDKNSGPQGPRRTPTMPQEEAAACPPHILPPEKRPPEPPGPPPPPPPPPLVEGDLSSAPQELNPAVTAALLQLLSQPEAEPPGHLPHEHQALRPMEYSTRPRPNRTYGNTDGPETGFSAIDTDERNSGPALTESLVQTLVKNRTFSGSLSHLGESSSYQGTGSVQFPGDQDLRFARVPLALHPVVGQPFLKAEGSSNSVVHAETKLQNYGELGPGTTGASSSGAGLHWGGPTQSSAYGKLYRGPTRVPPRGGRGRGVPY
T1 sequence (Q16531 whole entry, species assumed): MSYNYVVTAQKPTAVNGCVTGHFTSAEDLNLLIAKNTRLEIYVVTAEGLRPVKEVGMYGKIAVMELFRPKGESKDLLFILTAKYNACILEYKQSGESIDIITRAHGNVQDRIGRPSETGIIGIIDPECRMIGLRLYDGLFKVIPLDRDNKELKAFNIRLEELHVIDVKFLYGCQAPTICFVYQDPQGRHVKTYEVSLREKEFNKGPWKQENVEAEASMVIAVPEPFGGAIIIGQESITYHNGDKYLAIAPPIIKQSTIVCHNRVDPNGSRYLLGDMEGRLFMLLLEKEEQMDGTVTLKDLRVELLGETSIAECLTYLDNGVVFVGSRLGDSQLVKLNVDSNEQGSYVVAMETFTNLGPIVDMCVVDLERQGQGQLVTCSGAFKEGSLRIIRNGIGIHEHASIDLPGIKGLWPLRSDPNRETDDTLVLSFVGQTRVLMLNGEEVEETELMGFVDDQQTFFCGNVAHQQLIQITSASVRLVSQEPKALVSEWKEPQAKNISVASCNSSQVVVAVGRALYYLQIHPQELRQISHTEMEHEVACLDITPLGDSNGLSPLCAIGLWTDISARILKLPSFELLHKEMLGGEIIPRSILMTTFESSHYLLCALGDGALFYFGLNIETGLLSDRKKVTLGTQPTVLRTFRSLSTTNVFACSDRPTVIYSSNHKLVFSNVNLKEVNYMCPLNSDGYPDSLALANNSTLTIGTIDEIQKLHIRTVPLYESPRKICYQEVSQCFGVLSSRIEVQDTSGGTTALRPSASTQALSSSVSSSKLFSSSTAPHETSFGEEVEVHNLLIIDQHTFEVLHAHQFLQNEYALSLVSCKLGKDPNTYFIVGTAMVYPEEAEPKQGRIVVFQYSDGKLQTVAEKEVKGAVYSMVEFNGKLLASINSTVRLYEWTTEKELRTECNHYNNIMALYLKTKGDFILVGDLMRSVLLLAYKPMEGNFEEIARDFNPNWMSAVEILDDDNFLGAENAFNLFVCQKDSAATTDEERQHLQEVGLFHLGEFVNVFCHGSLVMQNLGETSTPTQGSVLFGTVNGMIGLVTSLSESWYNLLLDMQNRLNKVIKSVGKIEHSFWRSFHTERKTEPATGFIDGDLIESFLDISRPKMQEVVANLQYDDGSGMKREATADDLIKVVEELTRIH
Protocol: HEK293 LgBiT cells (Promega) were cultured in DMEM (Gibco 11995), supplemented with 10% Heat-inactivated FBS (Gibco A38400-01) and 1% Penicillin/Streptomycin (Gibco 15140-122) and 200 μg/ml Hygromycin B (Gibco 10-687-010) at 37° C. with 5% CO2 in a humidified tissue culture incubator. Cells were made stable for CCNK fused to a C-terminal HiBiT peptide by lentiviral transduction, followed by selection with 1 μg/ml Puromycin Dihydrochloride (Thermo A1113803). HEK293 LgBiT/CCNK HiBiT cells were seeded at 3000 cells/well in 384-well, tissue culture-treated white plates (Perkin Elmer 6007680) in 25 μL media lacking selection for 18-24 hours. Plates were spun at 300 g for 30 seconds and stored in the incubator overnight. After 24 hours, compounds were titrated in DMSO and added to media supplemented with Endurazine Substrate (Promega N2570). A 25 ul aliquot of 2× compound/endurazine in media were then added to the 384-well microplate with seeded cells. (Endurazine was used at a final concentration of 0.5×). The plate was spun at 300 g for 30 seconds and stored in the incubator. After 6 hours the plate was read on Envision MultiMode Plate Reader 2105 (Perkin Elmer) to measure luminescence signal. Data were plotted in Prism (Graphpad) and the concentration of compound at which 50% CCNK degradation occurs (DC50) was calculated.

[2] = tested on: CCNK; experiment: Payload release assay (DC50 readout), CCNK degradation in the presence of recombinant target protein; format: cell-based
Protocol: Exemplary compounds were tested for ability to cause degradation of CCNK or GSPT1 in the presence of recombinant target protein.
HEK293 LgBiT/GSPT1 HiBiT CRISPR Knock-in cells (Promega) were cultured in DMEM (Gibco 11995), supplemented with 10% Heat-inactivated FBS (Gibco A38400-01) and 1% Penicillin/Streptomycin (Gibco 15140-122) and 200 Vg/ml Hygromycin B (Gibco 10-687-010) at 37° C. with 5% CO2 in a humidified tissue culture incubator. HEK293 LgBiT/CCNK HiBiT cells (in-house, described above) were cultured in DMEM (Gibco 11995), supplemented with 10% Heat-inactivated FBS (Gibco A38400-01) and 1% Penicillin/Streptomycin (Gibco 15140-122) 200 Vg/ml Hygromycin B (Gibco 10-687-010), and 1 Vg/ml Puromycin Dihydrochloride (Thermo A1113803) at 37° C. with 5% CO2 in a humidified tissue culture incubator. Cells were seeded (1000 cells/well for HEK293 LgBiT/GSPT1 HiBiT cells or 3000 cells/well for HEK293 LgBiT/CCNK HiBiT cells) 384-well, tissue culture-treated white plates (Perkin Elmer 6007680) in 10 μL media lacking selection for 18-24 hours. Plates were spun at 300 g for 30 seconds and stored in the incubator overnight. After 24 hours, a 5 μL aliquot of recombinant target protein (final concentration of either 5 μM KRAS amino acids 1-169, C51S, C80L, C118S, G12C or 3 μM EGFR amino acids 696-1022 or 3 μM EGFR amino acids 696-1022, T790M, L858R) was added to wells, followed immediately by a 5 μL aliquot of 4× compound-containing medium supplemented with Endurazine Substrate (Promega N2570) was added in each well, at a final top concentration of 10 μM test compound and 0.5× Endurazine, with 4-fold dilutions, using DMSO alone as a negative control. Plates were then spun at 300×g for 3 minutes again and cultured at 37° C. with 5% CO2. After 6 hours the plate was read on Envision MultiMode Plate Reader 2105 (Perkin Elmer) to measure luminescence signal. Data was normalized to DMSO treated cell wells. A four-parameter non-linear regression curve fit was applied to dose-response data in Prism to determine the half maximal growth inhibitory concentration (GI50) of each compound.

[3] = 0 μM recombinant EGFR T790M L858R, II-series and V-4 (CCNK readout inferred), read-out: DC50 at 0 μM EGFR T790M L858R
[4] = 0 μM recombinant EGFR WT, II-series and V-4 (CCNK readout inferred), read-out: DC50 at 0 μM EGFR WT
[5] = 3 μM recombinant EGFR T790M L858R, II-series and V-4 (CCNK readout inferred), read-out: DC50 at 3 μM EGFR T790M L858R
[6] = 3 μM recombinant EGFR WT, II-series and V-4 (CCNK readout inferred), read-out: DC50 at 3 μM EGFR WT
[7] = 0 μM recombinant KRAS G12C, II-series compounds (CCNK readout inferred), read-out: DC50 at 0 μM KRAS G12C
[8] = 5 μM recombinant KRAS G12C, II-series compounds (CCNK readout inferred), read-out: DC50 at 5 μM KRAS G12C

With `C=C(COC(=O)n1c(CNc2nc(N3CCNCC3)nc3c(Br)cnn23)nc2cc(C)ccc21)C(=O)N1C[C@H](COc2nc(Nc3cnn(C)c3)nc3[nH]cc(Cl)c23)[C@@H](OC)C1` [Compound V-4] the DC50 [1] was under 250 nM, the DC50 [2, 3] was under 250 nM and the DC50 [2, 4] was under 250 nM. It also gave a DC50 [2, 5] of under 250 nM and a DC50 [2, 6] of under 250 nM.
`C=C(COc1cc(-c2ccccn2)ccc1CNc1nc(N[C@H](CC)CO)nc2c1ncn2C(C)C)C(=O)N[C@@H]1CN(c2nc(Nc3cn(C)nc3OC)c3ncn(C)c3n2)C[C@H]1F` [II-183] gave a DC50 [2, 3] of under 250 nM and a DC50 [2, 4] of under 250 nM.
`C=C(COC(=O)N1CCN(c2nc(NCc3nc4cc(C)ccc4[nH]3)n3ncc(Br)c3n2)CC1)C(=O)N1C[C@H](COc2nc(Nc3cnn(C)c3)nc3[nH]cc(Cl)c23)[C@@H](OC)C1` [II-185] was tested, and the DC50 [1] was under 250 nM, the DC50 [2, 3] was 250 to 5000 nM and the DC50 [2, 4] was 250 to 5000 nM. The DC50 [2, 5] was under 250 nM and the DC50 [2, 6] was under 250 nM.
`C=C(COc1cc(-c2ccccn2)ccc1CNc1nc(N[C@H](CC)CO)nc2c1ncn2C(C)C)C(=O)N1CCN(c2nc(OC[C@@H]3CCCN3C)nc3c2CCN(c2cccc4cccc(Cl)c24)C3)C[C@@H]1CC#N` [II-186] showed a DC50 [1] of 250 to 5000 nM, a DC50 [2, 7] of 250 to 5000 nM and a DC50 [2, 8] of under 250 nM.
Work on `C=C(CN1CCN(c2nc(NCc3nc4cc(C)ccc4[nH]3)n3ncc(Br)c3n2)CC1)C(=O)Nc1cc(Nc2nccc(-c3cn(C)c4ccccc34)n2)c(OC)cc1N(C)CCN(C)C` [II-188] yielded a DC50 [1] of under 250 nM, a DC50 [2, 3] of under 250 nM and a DC50 [2, 4] of under 250 nM. It also gave a DC50 [2, 6] of over 10000 nM.
`C=C(CN1CCN(c2nc(NCc3nc4cc(C)ccc4[nH]3)n3ncc(Br)c3n2)CC1)C(=O)N1CCN(c2nc(OC[C@@H]3CCCN3C)nc3c2CCN(c2cccc4cccc(Cl)c24)C3)C[C@@H]1CC#N` [II-190] showed a DC50 [1] of under 250 nM, a DC50 [2, 7] of under 250 nM and a DC50 [2, 8] of under 250 nM.
Work on `C=C(CN1CCN(c2nc(NCc3nc4cc(C)ccc4[nH]3)n3ncc(Br)c3n2)CC1)C(=O)Nc1cccc(-c2cccc3cnc(Nc4ccc(N5CCN(CCO)CC5)c(F)c4F)nc23)c1` [II-191] yielded a DC50 [2, 3] of 250 to 5000 nM and a DC50 [2, 4] of 5000 to 10000 nM.
